Measured values: PubChem BioAssay (NCI)
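All cell lines were grown in 96-well plates and treated with compound for 48 hours. GI50 marks 50% less growth. TGI is the concentration that stops growth completely.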

Key:
Experiment in all cases: DTP human tumour cell line panel, 48 h
[1] = tested on: DU-145 prostate
[2] = tested on: HT29 colon
[3] = tested on: TK-10 renal
[4] = tested on: MDA-MB-435
[5] = tested on: SF-268 CNS
[6] = tested on: T-47D breast
[7] = tested on: NCI-H226 lung
[8] = tested on: 786-0 renal
[9] = tested on: OVCAR-3 ovarian
[10] = tested on: CCRF-CEM leukemia
[11] = tested on: SK-OV-3 ovarian
[12] = tested on: IGROV1 ovarian
[13] = tested on: NCI-H23 lung
[14] = tested on: COLO 205 colon
[15] = tested on: SK-MEL-28 melanoma
[16] = tested on: NCI-H460 lung
[17] = tested on: UO-31 renal
[18] = tested on: A549 NSCLC
[19] = tested on: ACHN renal
[20] = tested on: CAKI-1 renal
[21] = tested on: HOP-62 NSCLC
[22] = tested on: SK-MEL-5 melanoma
[23] = tested on: SK-MEL-2 melanoma
[24] = tested on: SW-620 colon
[25] = tested on: NCI/ADR-RES ovarian
[26] = tested on: LOX IMVI melanoma
[27] = tested on: SF-295 CNS
[28] = tested on: KM12 colon
[29] = tested on: M14 melanoma
[30] = tested on: RPMI-8226 leukemia
[31] = tested on: SNB-75 CNS
[32] = tested on: OVCAR-5 ovarian
[33] = tested on: OVCAR-8 ovarian
[34] = tested on: MDA-MB-231 breast
[35] = tested on: PC-3 prostate
[36] = tested on: SN12C renal
[37] = tested on: NCI-H522 lung
[38] = tested on: U251 CNS
[39] = tested on: HCT-15 colon
[40] = tested on: SNB-19 CNS
[41] = tested on: HL-60(TB) leukemia
[42] = tested on: BT-549 breast
[43] = tested on: K-562 leukemia
[44] = tested on: UACC-62 melanoma
[45] = tested on: HCC-2998 colon
[46] = tested on: SF-539 CNS
[47] = tested on: HS 578T breast
[48] = tested on: HCT-116 colon
[49] = tested on: MALME-3M melanoma
[50] = tested on: A498 renal
[51] = tested on: SR leukemia
[52] = tested on: MOLT-4 leukemia
[53] = tested on: RXF 393 renal
[54] = tested on: MCF7 breast
[55] = tested on: UACC-257 melanoma
[56] = tested on: HOP-92 NSCLC
[57] = tested on: EKVX NSCLC
[58] = tested on: OVCAR-4 ovarian

`Cc1ccc(C2=NN(c3ccc(S(N)(=O)=O)cc3)C(c3cn(-c4ccccc4)nc3-c3ccccc3)C2)cc1` (centres undefined) showed a GI50 [1] of 67.9 µM, a TGI [1] of over 100 µM and a GI50 [2] of 4.8 µM. For the same molecule, the TGI [2] was over 100 µM, the GI50 [3] was 71.2 µM and the TGI [3] was over 100 µM. The GI50 [4] was 10 µM, the TGI [4] was over 100 µM and the GI50 [5] was 25.7 µM. The TGI [5] was over 100 µM, the GI50 [6] was 9.13 µM and the TGI [6] was over 100 µM. It also gave a GI50 [7] of 30.7 µM, a TGI [7] of over 100 µM and a GI50 [8] of 4.69 µM. It also gave a TGI [8] of over 100 µM, a GI50 [9] of 14.3 µM and a TGI [9] of over 100 µM. The GI50 [10] was over 100 µM, the TGI [10] was over 100 µM and the GI50 [11] was over 100 µM. The TGI [11] was over 100 µM, the GI50 [12] was 28.3 µM and the TGI [12] was over 100 µM. For the same molecule, the GI50 [13] was 14.1 µM, the TGI [13] was over 100 µM and the GI50 [14] was 15.1 µM. For the same molecule, the TGI [14] was over 100 µM, the GI50 [15] was 39.2 µM and the TGI [15] was over 100 µM. The GI50 [16] was 4.22 µM, the TGI [16] was over 100 µM and the GI50 [17] was 5.38 µM. The TGI [17] was over 100 µM, the GI50 [18] was 6.75 µM and the TGI [18] was over 100 µM. It also gave a GI50 [19] of 9.51 µM, a TGI [19] of over 100 µM and a GI50 [20] of 6.17 µM. It also gave a TGI [20] of over 100 µM, a GI50 [21] of over 100 µM and a TGI [21] of over 100 µM. It also gave a GI50 [22] of 16.6 µM, a TGI [22] of over 100 µM and a GI50 [23] of 43.7 µM. The TGI [23] was over 100 µM, the GI50 [24] was 9.82 µM and the TGI [24] was over 100 µM. For the same molecule, the GI50 [25] was 11.1 µM, the TGI [25] was over 100 µM and the GI50 [26] was 24.9 µM. For the same molecule, the TGI [26] was over 100 µM, the GI50 [27] was 73.3 µM and the TGI [27] was over 100 µM. The GI50 [28] was 4.27 µM, the TGI [28] was over 100 µM and the GI50 [29] was 8.54 µM. For the same molecule, the TGI [29] was over 100 µM, the GI50 [30] was 6.35 µM and the TGI [30] was over 100 µM. The GI50 [31] was 80.5 µM, the TGI [31] was over 100 µM and the GI50 [32] was 70.4 µM. The TGI [32] was over 100 µM, the GI50 [33] was 7.53 µM and the TGI [33] was over 100 µM. The GI50 [34] was 9.41 µM, the TGI [34] was 84.4 µM and the GI50 [35] was 3.32 µM. It also gave a TGI [35] of over 100 µM, a GI50 [36] of 2.23 µM and a TGI [36] of 5 µM. For the same molecule, the GI50 [37] was 25.1 µM, the TGI [37] was over 100 µM and the GI50 [38] was 19.6 µM. For the same molecule, the TGI [38] was over 100 µM, the GI50 [39] was 7.53 µM and the TGI [39] was over 100 µM. For the same molecule, the GI50 [40] was over 100 µM, the TGI [40] was over 100 µM and the GI50 [41] was 44 µM. For the same molecule, the TGI [41] was over 100 µM, the GI50 [42] was 3.85 µM and the TGI [42] was 61.6 µM. The GI50 [43] was 3.82 µM, the TGI [43] was over 100 µM and the GI50 [44] was 32.4 µM. It also gave a TGI [44] of over 100 µM, a GI50 [45] of 13.8 µM and a TGI [45] of over 100 µM. It also gave a GI50 [46] of over 100 µM, a TGI [46] of over 100 µM and a GI50 [47] of 18.3 µM. It also gave a TGI [47] of over 100 µM, a GI50 [48] of 3.07 µM and a TGI [48] of 42 µM. The GI50 [49] was 81 µM, the TGI [49] was over 100 µM and the GI50 [50] was 1.84 µM. For the same molecule, the TGI [50] was 5.19 µM, the GI50 [51] was 5.92 µM and the TGI [51] was over 100 µM. For the same molecule, the GI50 [52] was 3.72 µM, the TGI [52] was over 100 µM and the GI50 [53] was 3.81 µM. The TGI [53] was 17.8 µM, the GI50 [54] was 3.19 µM and the TGI [54] was over 100 µM. For the same molecule, the GI50 [55] was 29.6 µM, the TGI [55] was over 100 µM and the GI50 [56] was 3.33 µM. It also gave a TGI [56] of 22.2 µM.

In the case of `O=[N+]([O-])c1cc2c(c([N+](=O)[O-])c1)Nc1ccccc1O2`, the GI50 [1] is reported as 7.32 µM, the TGI [1] is reported as over 100 µM and the GI50 [2] is reported as 6.41 µM. For the same molecule, the TGI [2] was 66.8 µM, the GI50 [3] was 9.98 µM and the TGI [3] was 46.7 µM. The GI50 [4] was 8 µM, the TGI [4] was over 100 µM and the GI50 [5] was 6.53 µM. The TGI [5] was over 100 µM, the GI50 [6] was 2.79 µM and the TGI [6] was 10.2 µM. The GI50 [7] was 5.97 µM, the TGI [7] was over 100 µM and the GI50 [8] was 5.81 µM. For the same molecule, the TGI [8] was 39.1 µM, the GI50 [9] was 3.69 µM and the TGI [9] was over 100 µM. The GI50 [10] was 13.2 µM, the TGI [10] was over 100 µM and the GI50 [11] was 15.2 µM. For the same molecule, the TGI [11] was 58.6 µM, the GI50 [12] was 7.58 µM and the TGI [12] was over 100 µM. It also gave a GI50 [13] of 2.78 µM, a TGI [13] of 87.2 µM and a GI50 [14] of 10.5 µM. For the same molecule, the TGI [14] was 27.8 µM, the GI50 [15] was 19.5 µM and the TGI [15] was over 100 µM. For the same molecule, the GI50 [16] was 4.62 µM, the TGI [16] was 83.1 µM and the GI50 [17] was 2.76 µM. The TGI [17] was 36.5 µM, the GI50 [18] was 5.51 µM and the TGI [18] was 60.4 µM. For the same molecule, the GI50 [57] was 4.4 µM, the TGI [57] was 51.7 µM and the GI50 [19] was 6.97 µM. For the same molecule, the TGI [19] was 76.2 µM, the GI50 [20] was 5.36 µM and the TGI [20] was 26.9 µM. The GI50 [21] was 16.3 µM, the TGI [21] was 44.4 µM and the GI50 [22] was 3.81 µM. It also gave a TGI [22] of 21.6 µM, a GI50 [23] of 7.48 µM and a TGI [23] of 40.3 µM. The GI50 [24] was 10.7 µM, the TGI [24] was over 100 µM and the GI50 [58] was 5.99 µM. The TGI [58] was 68.3 µM, the GI50 [25] was 3.41 µM and the TGI [25] was 55.4 µM. The GI50 [26] was 4.67 µM, the TGI [26] was over 100 µM and the GI50 [27] was 4.7 µM. It also gave a TGI [27] of 29.1 µM, a GI50 [28] of 6.68 µM and a TGI [28] of over 100 µM. It also gave a GI50 [29] of 11.5 µM, a TGI [29] of over 100 µM and a GI50 [30] of 2.96 µM. For the same molecule, the TGI [30] was 8.2 µM, the GI50 [31] was 29.8 µM and the TGI [31] was over 100 µM. For the same molecule, the GI50 [32] was 14.9 µM, the TGI [32] was 62.2 µM and the GI50 [33] was 10 µM. The TGI [33] was over 100 µM, the GI50 [34] was 6.38 µM and the TGI [34] was 30.7 µM. It also gave a GI50 [35] of 4.12 µM, a TGI [35] of 34 µM and a GI50 [36] of 6 µM. It also gave a TGI [36] of over 100 µM, a GI50 [37] of 2.78 µM and a TGI [37] of 31.4 µM. It also gave a GI50 [38] of 3.32 µM, a TGI [38] of 22.6 µM and a GI50 [39] of 5.49 µM. The TGI [39] was over 100 µM, the GI50 [40] was 6.33 µM and the TGI [40] was over 100 µM. It also gave a GI50 [42] of 7.58 µM, a TGI [42] of 60.8 µM and a GI50 [43] of 4.64 µM. For the same molecule, the TGI [43] was over 100 µM, the GI50 [44] was 5.11 µM and the TGI [44] was over 100 µM. The GI50 [45] was 7.75 µM, the TGI [45] was over 100 µM and the GI50 [46] was 13.3 µM. For the same molecule, the TGI [46] was 74.6 µM, the GI50 [47] was 7.22 µM and the TGI [47] was over 100 µM. For the same molecule, the GI50 [48] was 4.49 µM, the TGI [48] was 63 µM and the GI50 [49] was 4.08 µM. For the same molecule, the TGI [49] was over 100 µM, the GI50 [50] was 1.73 µM and the TGI [50] was 9.34 µM. For the same molecule, the GI50 [51] was 5.46 µM, the TGI [51] was over 100 µM and the GI50 [52] was 6.22 µM. It also gave a TGI [52] of over 100 µM, a GI50 [53] of 7.35 µM and a TGI [53] of 46.3 µM. The GI50 [54] was 4.96 µM, the TGI [54] was over 100 µM and the GI50 [55] was 3.74 µM. For the same molecule, the TGI [55] was 39.1 µM.
